Source: PMC4556614 (PLoS ONE, 2015)
Read-outs that look alike come from different tables or passages of the source.

Experiments:
OCT2 [1] = test system: OCT2; parameters: method as in earlier work; settings: drug 20 μM; HEK 293 cells overexpressing OCT2; ref 7 (Kido et al.); cited from earlier work
OCT2 [2] = biological target: T1, OCT2 (Homo sapiens, UniProt O15244); assay: Inhibition of OCT2-mediated [3H]MPP+ uptake in HEK-OCT2 cells; settings: for inhibition at 3 min, 20 µM / inhibition at 3 min, 200 µM: pH 7.3, probe [3H]MPP+, 50 µM
T1 sequence (O15244 whole entry): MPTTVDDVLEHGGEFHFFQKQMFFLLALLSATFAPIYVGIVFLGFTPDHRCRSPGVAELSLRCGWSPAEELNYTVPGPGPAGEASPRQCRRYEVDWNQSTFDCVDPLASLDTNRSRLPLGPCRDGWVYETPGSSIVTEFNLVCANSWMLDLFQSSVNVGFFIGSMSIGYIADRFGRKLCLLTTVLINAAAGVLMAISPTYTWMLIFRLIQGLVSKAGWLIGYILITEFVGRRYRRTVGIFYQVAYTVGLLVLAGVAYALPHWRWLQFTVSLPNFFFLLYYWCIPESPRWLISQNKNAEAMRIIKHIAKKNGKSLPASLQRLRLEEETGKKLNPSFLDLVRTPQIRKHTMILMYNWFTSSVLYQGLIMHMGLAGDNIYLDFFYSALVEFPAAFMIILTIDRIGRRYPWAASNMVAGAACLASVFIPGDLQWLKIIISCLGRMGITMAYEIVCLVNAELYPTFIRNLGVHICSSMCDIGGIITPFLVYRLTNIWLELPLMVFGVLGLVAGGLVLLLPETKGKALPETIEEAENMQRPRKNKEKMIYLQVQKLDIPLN

OCT2 [3] = biological target: T1, OCT2; assay: Inhibition of OCT2-mediated [14C]metformin uptake in HEK-OCT2 cells; settings: for IC50 values, OCT2-mediated metformin transport (in words): potent inhibitors, confirmed previous findings [19]-[21]; for inhibition at 3 min, 20 µM / inhibition at 3 min, 200 µM: pH 7.3, probe [14C]metformin, 1000 µM, metformin 1000 μM, net uptake HEK-OCT2 minus HEK-VC; for inhibition at 3 min, 20 µM: % Inhibition of OCT2-dependent MF uptake at 20 µM (mean ± SEM), test drug 20 µM; for inhibition at 3 min, 200 µM: % Inhibition of OCT2-dependent MF uptake at 200 µM (mean ± SEM), test drug 200 µM
[4] = ref 16 (Regenthal et al.), cited from earlier work; for Cmax,u: Cmax of unbound drug in humans; for Cmax: maximum steady-state plasma concentration in humans
[5] = cited from earlier work
[6] = test drug 20 µM, MPP+ 50 μM, 3 min, net uptake HEK-OCT2 minus HEK-VC
[7] = test drug 200 µM, MPP+ 50 μM, 3 min, net uptake HEK-OCT2 minus HEK-VC
[8] = coadministration of lansoprazole
[9] = coadministration with pantoprazole

SMILES	% Inhibition of OCT2-dependent MPP+ uptake at 20 µM (mean ± SEM) (OCT2 [2]; [6]) [%]	% Inhibition of OCT2-dependent MPP+ uptake at 200 µM (mean ± SEM) (OCT2 [2]; [7]) [%]	% Inhibition of OCT2-dependent MF uptake at 200 µM (mean ± SEM) (OCT2 [3]; human, pH 7.3)	IC50 (OCT2 [3]; human, pH 7.3) [nM]	Cmax,u [4] [nM]	Cmax [4] [nM]	% Inhibition of OCT2-dependent MF uptake at 20 µM (mean ± SEM) (OCT2 [3]; human, pH 7.3)	further results
CN(C)CCC=C1c2ccccc2CCc2ccccc21 [Amitriptyline]	58.4 ± 2.8	97.8 ± 0.6	101.7 ± 2.2%	510	40	1100		Inhibition of OCT2-mediated ASP+ uptake (OCT2 [1]): more than 50%; % Inhibition of OCT2-dependent MPP+ uptake at 20 µM (mean ± SEM) (OCT2 [2]; test drug 20 µM, MPP+ 50 μM, 3 min, net uptake HEK-OCT2 minus HEK-VC, listed as amitriptyline): more than 50%; Cmax,u / IC50 (OCT2 [3]): 0.08; IC50 values, OCT2-mediated metformin transport (in words) (OCT2 [3]): low micromolar range
CN(C)CCCN1c2ccccc2CCc2ccc(Cl)cc21 [Clomipramine]	90.3 ± 1.5	98.8 ± 3.0	99.5 ± 3.7					Inhibition of OCT2-mediated ASP+ uptake (OCT2 [1]): more than 50%
N[C@@H](CC(=O)N1CCn2c(nnc2C(F)(F)F)C1)Cc1cc(F)c(F)cc1F [Sitagliptin]	-8.2 ± 7.8	22.7 ± 6.0	97.5 ± 0.1	7410	1500	2300	85.9 ± 1.1	Effect on steady-state pharmacokinetics of either agent ([5]; co-administration of sitagliptin and metformin, patients with type 2 diabetes): did not meaningfully alter; IC50 values, OCT2-mediated metformin transport (in words) (OCT2 [3]): low micromolar range
COc1ccc2[nH]c([S+]([O-])Cc3ncc(C)c(OC)c3C)nc2c1 (centres unmarked) [Omeprazole]	56.0 ± 4.0	93.0 ± 0.9	107.4 ± 4.3					Inhibition of OCT2-mediated ASP+ uptake (OCT2 [1]): more than 50%; % Inhibition of OCT2-dependent MPP+ uptake at 20 µM (mean ± SEM) (OCT2 [2]; test drug 20 µM, MPP+ 50 μM, 3 min, net uptake HEK-OCT2 minus HEK-VC, listed as omeprazole): more than 50%; IC50 values, OCT2-mediated metformin transport (in words) (OCT2 [3]): low micromolar range
CN(C)CCC=C1c2ccccc2COc2ccccc21 [Doxepin]			99.3 ± 0.7	250	250	1300		Inhibition of OCT2-mediated ASP+ uptake (OCT2 [1]): more than 50%
CC(=O)S[C@@H]1CC2=CC(=O)CC[C@]2(C)[C@H]2CC[C@@]3(C)[C@@H](CC[C@@]34CCC(=O)O4)[C@H]12 [Spironolactone]	33.5 ± 4.7	95.0 ± 0.5	98.4 ± 1.0	1290	20	1200		Cmax,u / IC50 (OCT2 [3]): 0.02
CCCc1nc2c(C)cc(-c3nc4ccccc4n3C)cc2n1Cc1ccc(-c2ccccc2C(=O)O)cc1 [Telmisartan]			99.2 ± 0.2					Inhibition of OCT2-mediated ASP+ uptake (OCT2 [1]): more than 50%; % Inhibition of OCT2-dependent MPP+ uptake at 200 µM (mean ± SEM) (OCT2 [2]; human, pH 7.3): 93.3 ± 2.8
O=C(O[C@H]1C[C@H]2CC[C@@H](C1)[N+]21CCCC1)C(O)(c1ccccc1)c1ccccc1 [Trospium chloride]	83.2 ± 2.2	96.7 ± 0.7	98.8 ± 0.4	70	10	30		Effect on metformin renal clearance and steady-state pharmacokinetics ([5]; trospium chloride coadministration, healthy volunteers): did not alter
Cc1c(OCC(F)(F)F)ccnc1C[S+]([O-])c1nc2ccccc2[nH]1 (centres unmarked) [Lansoprazole]	22.1 ± 5.3	90.1 ± 1.8	103.0 ± 2.7	3280	1200	6000	87.7 ± 1.6	Decrease of metformin renal clearance [5, 8]: 13%; Increase of AUC of metformin [5, 8]: 17%; Increase of Cmax of metformin [5, 8]: 15%; IC50 values, OCT2-mediated metformin transport (in words) (OCT2 [3]): low micromolar range
COc1ccnc(C[S+]([O-])c2nc3ccc(OC(F)F)cc3[nH]2)c1OC (centres unmarked) [Pantoprazole]			98.9 ± 0.6	560	230	11400		AUC for metformin greater following coadministration [5, 9]: 15%; Cmax for metformin greater following coadministration [5, 9]: 15%; % Inhibition of OCT2-dependent MPP+ uptake at 200 µM (mean ± SEM) (OCT2 [2]; human, pH 7.3): 101.7 ± 4.4
Cc1ccc(-c2nc3ccc(C)cn3c2CC(=O)N(C)C)cc1 [Zolpidem]			99.1 ± 0.5	150	50	650		% Inhibition of OCT2-dependent MPP+ uptake at 20 µM (mean ± SEM) (OCT2 [2]; human, pH 7.3): 36.5 ± 4.3; % Inhibition of OCT2-dependent MPP+ uptake at 200 µM (mean ± SEM) (OCT2 [2]; human, pH 7.3): 90.7 ± 8.2
CC(CN(C)C)CN1c2ccccc2CCc2ccccc21 (centres unmarked) [Trimipramine]	51.0 ± 10.2	98.6 ± 1.2	100.0 ± 0.8	440	60	610		Inhibition of OCT2-mediated ASP+ uptake (OCT2 [1]): more than 50%; % Inhibition of OCT2-dependent MPP+ uptake at 20 µM (mean ± SEM) (OCT2 [2]; test drug 20 µM, MPP+ 50 μM, 3 min, net uptake HEK-OCT2 minus HEK-VC, listed as trimipramine): more than 50%
CC(=O)NCCCS(=O)(=O)O [Acamprosate]	-8.1 ± 4.4	-7.7 ± 5.2	0.9 ± 5.8%				2.7 ± 4.8%	
CCOc1nc2cccc(C(=O)O)c2n1Cc1ccc(-c2ccccc2-c2nnn[nH]2)cc1 [Candesartan]								inhibition at 3 min, 20 µM (OCT2 [2]; human): 0.9 ± 0.1%; inhibition at 3 min, 200 µM (OCT2 [2]; human): -2.4 ± 4%; inhibition at 3 min, 20 µM (OCT2 [3]; human): 48 ± 3.7%; inhibition at 3 min, 200 µM (OCT2 [3]; human): 69.7 ± 2.7%
COc1cccc(C2(O)CCCCC2CN(C)C)c1 (centres unmarked) [Tramadol]			103.7 ± 9.2				47.1 ± 9.5	% Inhibition of OCT2-dependent MPP+ uptake at 20 µM (mean ± SEM) (OCT2 [2]; human, pH 7.3): 5.9 ± 7.9; % Inhibition of OCT2-dependent MPP+ uptake at 200 µM (mean ± SEM) (OCT2 [2]; human, pH 7.3): 31.4 ± 1.4
CC(C)n1c(/C=C/C(O)CC(O)CC(=O)O)c(-c2ccc(F)cc2)c2ccccc21 (centres unmarked) [Fluvastatin]	-10.1 ± 6.1	5.8 ± 9.1	32.5 ± 8.1				-21.1 ± 10.3	
CCN1CCCC1CNC(=O)c1cc(S(=O)(=O)CC)c(N)cc1OC (centres unmarked) [Amisulpride]								inhibition at 3 min, 20 µM (OCT2 [2]; human): 25.5 ± 7%; inhibition at 3 min, 200 µM (OCT2 [2]; human): 51.3 ± 6.7%; inhibition at 3 min, 20 µM (OCT2 [3]; human): 52 ± 2.1%; inhibition at 3 min, 200 µM (OCT2 [3]; human): 91.7 ± 0.7%
COc1ccc2cccc(CCNC(C)=O)c2c1 [Agomelatine]								inhibition at 3 min, 20 µM (OCT2 [2]; human): -10.3 ± 2.7%; inhibition at 3 min, 200 µM (OCT2 [2]; human): 39.9 ± 3.5%; inhibition at 3 min, 20 µM (OCT2 [3]; human): 71.3 ± 2.6%; inhibition at 3 min, 200 µM (OCT2 [3]; human): 95.5 ± 1.8%
Cc1c(N(C)CS(=O)(=O)O)c(=O)n(-c2ccccc2)n1C [Metamizole]	-31.6 ± 6.0	-39.1 ± 5.1	8.4 ± 9.8				-4.8 ± 6.4	
Cl.Cl.OCCN1CCN(CCC=C2c3ccccc3Sc3ccc(C(F)(F)F)cc32)CC1 (mixture of isomers) [Flupentixol]	22.9 ± 7.5	107.8 ± 5.0						% Inhibition of OCT2-dependent MF uptake at 20 µM (mean ± SEM) (OCT2 [3]): 75.0 ± 7.9; % Inhibition of OCT2-dependent MF uptake at 200 µM (mean ± SEM) (OCT2 [3]): 96.1 ± 2.1
Cc1cccc(Nc2ccncc2S(=O)(=O)NC(=O)NC(C)C)c1 [Torasemide]	-11.4 ± 2.3	-40.3 ± 5.0	-19.5 ± 0.8				-33.2 ± 5.0	
